The text below walks through data of patent publication US3950379A, “2-Cyano-diphenyl ethers” (Rohm and Haas Company, priority 1974, dated 1976).

Common to all, as to type: in vivo
The subject of test [1] is Monocots. The experiment in a line: Herbicidal activity, preemergence, monocot weeds in flats (% control). The note with it: pre-emergence, 336 h, about 2 weeks after application, percent of plants killed; for activity at 11208.5 g/ha: monocots (4 species, average), 10 lb./A.; for activity at 2241.7 g/ha / activity at 4483.4 g/ha: monocots (10 species, average); for activity at 2241.7 g/ha: 2 lb./A.; for activity at 4483.4 g/ha: 4 lb./A. The method, then:
(§1) Using the procedure described below, diphenyl ethers were evaluated for control of the following weeds: At 10 pounds per acre: […]
(§2) barnyardgrass (Echinochloa crusgalli) crabgrass (Digitaria spp.) nutsedge (Cyperus esculentus)
(§3) At 2 and 4 pounds per acre: […]
(§4) downy brome (Bromus tectorum) foxtail (Setaria faberii)
(§5) Johnsongrass (Sorghum halepense) […]
(§6) quackgrass (Agropyron repens) ryegrass (Lolium perenne) […]
(§7) yellow millet (Panicum miliaceum)
(§8) The following test procedure is employed. Seeds of selected crops and weeds are planted in soil in flats. For preemergence tests, the flats are treated with the test compound immediately after the planting. For post-emergence tests, the seeds are allowed to germinate, and after 2 weeks the flats are treated with the test compound. The compound to be evaluated is dissolved in acetone, diluted with water, and sprayed over the flats using a carrier volume equivalent to 50 gallons per acre at the rate of application (pounds per acre, lb/A.) specified in the tables. About 2 weeks after the application of the test compound, the state of growth of the plant is observed and the phytotoxic effect of the compound is evaluated. Table II gives the average percent control achieved by the test compounds in terms of the percent of the plants which are killed by the compounds.

The test system of test [2] is Dicots. Description: Herbicidal activity, postemergence, dicot weeds in flats (% control). The settings on record: post-emergence, 336 h, dicots (10 species, average), about 2 weeks after application, percent of plants killed; for activity at 2241.7 g/ha: 2 lb./A.; for activity at 4483.4 g/ha: 4 lb./A.
Test [3] deals with Dicots. The experiment in a line: Herbicidal activity, preemergence, dicot weeds in flats (% control). The note with it: pre-emergence, 336 h, dicots (4 species, average), 10 lb./A., about 2 weeks after application, percent of plants killed. The method, then:
as §1
(§9) bindweed (Convolvulus arvensis) curly dock (Rumex crispus) velvetleaf (Abutilon theophrasti) wild mustard (Brassica haber)
as §3
(§10) cocklebur (Xanthium pensylvanicum) […]
(§11) lambsquarters (Chenopodium album) morningglory (Ipomoea purpurea) pigweed (Amaranthus retroflexus) smartweed (Polygonum pensylvanicum) […]
(§12) wild carrot (Daucus carota)
as §8

Test [4] has as its system Dicots. Described as above. The note with it: pre-emergence, 336 h, dicots (10 species, average), about 2 weeks after application, percent of plants killed; for activity at 2241.7 g/ha: 2 lb./A.; for activity at 4483.4 g/ha: 4 lb./A.
For test [5], the system named is Dicots. Description: Herbicidal activity, postemergence, dicot weeds in flats (% control). The note with it: post-emergence, 336 h, dicots (4 species, average), 10 lb./A., about 2 weeks after application, percent of plants killed. The protocol: as §1, §9, §3, §10, §11, §12, §8
Test [6] deals with Monocots. The experiment in a line: Herbicidal activity, postemergence, monocot weeds in flats (% control). The settings on record: post-emergence, 336 h, about 2 weeks after application, percent of plants killed; for activity at 11208.5 g/ha: monocots (4 species, average), 10 lb./A.; for activity at 2241.7 g/ha / activity at 4483.4 g/ha: monocots (10 species, average); for activity at 2241.7 g/ha: 2 lb./A.; for activity at 4483.4 g/ha: 4 lb./A. The protocol: as §1, §2, §3, §4, §5, §6, §7, §8

In the case of `N#Cc1cc(C(F)(F)F)ccc1Oc1ccc(C(F)(F)F)cc1` [Example 6, 2-cyano-α, α, α-trifluoro-p-tolyl-α,α,α-trifluoro-p-tolyl ether], the activity at 11208.5 g/ha in the test on Monocots [1] came out at 0%; in the test on Dicots [3], 10%; with Dicots [5], 75%; with Monocots [6], 70%. The activity at 2241.7 g/ha in the test on Monocots [1] is 34%; in the test with Dicots [2], 49%; with Dicots [4], 5%; in the test with Monocots [6], 34%.
`N#Cc1cc(C(F)(F)F)ccc1Oc1ccc(Br)cc1` [Example 4, 2-cyano-α, α, α-trifluoro-p-tolyl-4-bromophenyl ether]: the activity at 11208.5 g/ha with Monocots [1] was found to be 5%; in the test with Dicots [3], 0%; with Dicots [5], 85%; in the test on Monocots [6], 22%. Further, the activity at 2241.7 g/ha in the test with Monocots [1] came out at 51%; with Dicots [2], 50%; in the test on Dicots [4], 34%; in the test on Monocots [6], 34%. Also, the activity at 4483.4 g/ha with Monocots [1] worked out at 67%; with Dicots [2], 56%; in the test on Dicots [4], 37%; in the test with Monocots [6], 34%.
Regarding `N#Cc1ccc(Oc2ccc(C(F)(F)F)cc2C#N)cc1` [Example 5], the activity at 11208.5 g/ha in the test with Monocots [1] came to 70%; in the test on Dicots [3], 77%; in the test on Dicots [5], 65%; in the test with Monocots [6], 25%. Moreover, the activity at 2241.7 g/ha was found to be 42% in the test with Monocots [1], 59% in the test with Dicots [2], 47% in the test with Dicots [4] and 48% with Monocots [6]. Also, the activity at 4483.4 g/ha was 44% with Monocots [1], 41% in the test with Dicots [2], 50% in the test with Dicots [4] and 11% with Monocots [6].
For the compound `N#Cc1cc(Cl)ccc1Oc1ccc([N+](=O)[O-])cc1` [Example 2], the activity at 11208.5 g/ha in the test with Monocots [1] came to 81%; with Dicots [3] it was 95%; in the test with Dicots [5], 100%; in the test with Monocots [6], 95%. Also, the activity at 4483.4 g/ha is 49% in the test on Monocots [1], 64% in the test with Dicots [2], 55% in the test with Dicots [4] and 44% with Monocots [6].
Take `N#Cc1cc(C(F)(F)F)ccc1Oc1ccc(Cl)cc1` [Example 3, 2-cyano-α,α,α-trifluoro-p-tolyl-4-chlorophenylether]: the activity at 11208.5 g/ha in the test with Monocots [1] came to 10%; in the test on Dicots [3], 10%; in the test on Dicots [5], 75%; in the test on Monocots [6], 17%. Besides, the activity at 2241.7 g/ha was determined as 65% with Monocots [1], 50% in the test on Dicots [2], 61% with Dicots [4] and 27% in the test with Monocots [6]. For the same compound, the activity at 4483.4 g/ha in the test on Monocots [1] amounted to 59%; in the test on Dicots [2], 38%; in the test on Dicots [4] it was 40%; in the test on Monocots [6], 9%.
Turning to `N#Cc1cc(F)ccc1Oc1ccc([N+](=O)[O-])cc1` [Example 1, 2-cyano-4-fluoro-4'-nitrodiphenyl ether], the activity at 11208.5 g/ha in the test with Monocots [1] was 77%; in the test with Dicots [3] it was 77%; in the test on Dicots [5], 100%; in the test with Monocots [6], 95%. Also, the activity at 4483.4 g/ha in the test on Monocots [1] was 47%; in the test on Dicots [2], 58%; with Dicots [4], 51%; in the test with Monocots [6] it was 44%.
As for `N#Cc1cc(C(F)(F)F)ccc1Oc1ccc(Cl)c(Cl)c1` [Example 7], the activity at 11208.5 g/ha with Monocots [1] amounted to 0%; in the test on Dicots [3] it was 0%; in the test with Dicots [5] it was 77%; with Monocots [6], 40%. Besides, the activity at 2241.7 g/ha in the test on Monocots [1] was 56%; in the test with Dicots [2], 55%; with Dicots [4], 65%; in the test with Monocots [6] it was 36%. Besides, the activity at 4483.4 g/ha came to 66% in the test on Monocots [1], 64% with Dicots [2], 41% with Dicots [4] and 36% in the test on Monocots [6].
